In ChEMBL document CHEMBL5154936, “Scaffold Hopping Strategy to Identify Prostanoid EP4 Receptor Antagonists for Cancer Immunotherapy” (J Med Chem, 2022):

Key:
[1] = biological target: Prostaglandin E2 receptor EP4 subtype (Homo sapiens, UniProt P35408); experiment: Antagonist activity at human EP4 receptor transfected in CHO/Galpha16 cells preincubated for 15 mins followed by PGE2 addition by calcium flux assay; assay type: functional, cell-based
[2] = biological target: Prostaglandin E2 receptor EP4 subtype (Mus musculus, UniProt P32240); experiment: Antagonist activity at mouse EP4 receptor transfected in CHO/Galpha16 cells preincubated for 15 mins followed by PGE2 addition by calcium flux assay; assay type: functional, cell-based
Prostaglandin E2 receptor EP4 subtype (Mus musculus, UniProt P32240), sequence (P32240 whole entry): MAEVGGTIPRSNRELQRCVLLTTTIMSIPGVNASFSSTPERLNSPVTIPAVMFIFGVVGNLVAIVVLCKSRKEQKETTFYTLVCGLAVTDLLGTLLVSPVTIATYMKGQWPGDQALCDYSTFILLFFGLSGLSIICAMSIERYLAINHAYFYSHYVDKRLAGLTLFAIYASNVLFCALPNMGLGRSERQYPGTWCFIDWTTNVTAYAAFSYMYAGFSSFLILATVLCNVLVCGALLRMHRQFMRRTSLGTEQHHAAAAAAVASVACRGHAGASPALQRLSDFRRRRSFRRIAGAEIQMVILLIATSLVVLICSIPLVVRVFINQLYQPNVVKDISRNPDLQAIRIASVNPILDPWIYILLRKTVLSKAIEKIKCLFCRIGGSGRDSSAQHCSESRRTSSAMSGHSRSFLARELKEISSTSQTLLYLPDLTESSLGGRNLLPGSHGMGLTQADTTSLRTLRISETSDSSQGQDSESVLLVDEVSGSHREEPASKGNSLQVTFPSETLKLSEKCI

[3] = Metabolic stability in human liver microsomes assessed as half life; assay type: ADME, Microsome
[4] = Metabolic stability in human liver microsomes assessed as intrinsic clearance; assay type: ADME, Microsome; conditions: read-out: CLH
[5] = Metabolic stability in human liver microsomes assessed as parent compound remaining at 10 uM measured after 60 mins; assay type: ADME, Microsome; conditions: read-out: Stability
[6] = biological target: T1, Prostaglandin E2 receptor EP1 subtype (Homo sapiens, UniProt P34995); experiment: Antagonist activity at human EP1 receptor transfected in CHO/Galpha16 cells preincubated for 15 mins followed by PGE2 addition by calcium flux assay; assay type: functional, cell-based
T1 sequence (P34995 whole entry): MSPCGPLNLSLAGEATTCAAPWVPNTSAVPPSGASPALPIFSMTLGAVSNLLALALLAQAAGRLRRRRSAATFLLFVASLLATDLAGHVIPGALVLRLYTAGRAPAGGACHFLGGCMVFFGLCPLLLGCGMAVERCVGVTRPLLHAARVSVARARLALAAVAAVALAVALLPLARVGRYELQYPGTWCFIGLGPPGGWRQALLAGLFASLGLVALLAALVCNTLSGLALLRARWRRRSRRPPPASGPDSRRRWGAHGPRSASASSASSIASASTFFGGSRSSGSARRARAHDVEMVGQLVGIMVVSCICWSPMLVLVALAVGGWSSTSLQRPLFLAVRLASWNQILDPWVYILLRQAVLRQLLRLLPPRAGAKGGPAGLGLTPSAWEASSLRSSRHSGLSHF

[7] = biological target: Prostaglandin E2 receptor EP2 subtype (Homo sapiens, UniProt P43116); experiment: Antagonist activity at human EP2 receptor transfected in CHO/Galpha16 cells preincubated for 15 mins followed by PGE2 addition by calcium flux assay; assay type: functional, cell-based
Prostaglandin E2 receptor EP2 subtype, sequence (P43116 whole entry): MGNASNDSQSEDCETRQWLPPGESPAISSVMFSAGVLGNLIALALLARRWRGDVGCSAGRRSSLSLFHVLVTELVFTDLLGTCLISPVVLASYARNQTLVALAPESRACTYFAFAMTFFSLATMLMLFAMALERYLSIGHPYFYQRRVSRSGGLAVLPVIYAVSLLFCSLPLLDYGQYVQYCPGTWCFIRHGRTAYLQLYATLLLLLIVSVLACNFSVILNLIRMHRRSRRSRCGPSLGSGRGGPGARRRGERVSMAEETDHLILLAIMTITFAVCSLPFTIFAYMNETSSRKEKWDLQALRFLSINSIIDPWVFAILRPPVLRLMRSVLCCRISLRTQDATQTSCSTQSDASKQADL

[8] = biological target: T2, Prostaglandin E2 receptor EP3 subtype (Homo sapiens, UniProt P43115); experiment: Antagonist activity at human EP3 receptor transfected in CHO/Galpha16 cells preincubated for 15 mins followed by PGE2 addition by calcium flux assay; assay type: functional, cell-based
T2 sequence (P43115 whole entry): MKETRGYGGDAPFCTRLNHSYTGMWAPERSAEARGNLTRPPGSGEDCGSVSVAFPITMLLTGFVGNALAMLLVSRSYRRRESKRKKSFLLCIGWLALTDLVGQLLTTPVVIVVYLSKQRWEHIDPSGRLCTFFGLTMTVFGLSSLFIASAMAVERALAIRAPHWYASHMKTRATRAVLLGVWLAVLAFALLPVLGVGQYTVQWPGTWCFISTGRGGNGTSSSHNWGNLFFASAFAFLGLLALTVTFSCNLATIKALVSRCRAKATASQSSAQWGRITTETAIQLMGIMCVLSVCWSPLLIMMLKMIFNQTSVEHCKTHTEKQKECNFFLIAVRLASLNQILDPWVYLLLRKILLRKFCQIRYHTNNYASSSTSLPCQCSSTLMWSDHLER

[9] = Metabolic stability in mouse liver microsomes assessed as half life; assay type: ADME, Microsome
[10] = Metabolic stability in mouse liver microsomes assessed as intrinsic clearance; assay type: ADME, Microsome; conditions: read-out: CLH
[11] = Metabolic stability in mouse liver microsomes assessed as parent compound remaining at 10 uM measured after 60 mins; assay type: ADME, Microsome; conditions: read-out: Stability
EMT6 = experiment: Cytotoxicity against mouse EMT6 cells assessed as reduction in cell viability incubated for 72 hrs by CCK-8 assay; conditions: EMT6, 72 h
3LL cell line = experiment: Cytotoxicity against mouse 3LL cells assessed as reduction in cell viability incubated for 72 hrs by CCK-8 assay
CYP2C9 = CYP2C9 (Homo sapiens, UniProt P11712); experiment: Inhibition of CYP2C9 (unknown origin) at 20 uM; assay type: ADME
CYP2C9, sequence (P11712 whole entry): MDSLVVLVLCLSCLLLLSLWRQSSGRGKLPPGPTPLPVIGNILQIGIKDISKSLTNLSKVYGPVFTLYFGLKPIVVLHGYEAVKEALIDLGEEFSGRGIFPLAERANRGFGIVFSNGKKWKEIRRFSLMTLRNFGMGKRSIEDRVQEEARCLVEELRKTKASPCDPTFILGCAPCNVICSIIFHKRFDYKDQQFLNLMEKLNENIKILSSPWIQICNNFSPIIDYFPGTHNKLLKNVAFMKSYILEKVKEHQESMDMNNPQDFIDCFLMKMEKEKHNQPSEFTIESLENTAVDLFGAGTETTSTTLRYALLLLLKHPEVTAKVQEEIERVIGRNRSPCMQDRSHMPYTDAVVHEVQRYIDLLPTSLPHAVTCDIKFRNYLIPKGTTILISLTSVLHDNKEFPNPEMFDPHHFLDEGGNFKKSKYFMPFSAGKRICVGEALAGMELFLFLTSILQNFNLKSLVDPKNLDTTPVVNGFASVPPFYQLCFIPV

CYP1A2 = biological target: T3, CYP1A2 (Homo sapiens, UniProt P05177); experiment: Inhibition of CYP1A2 (unknown origin) at 20 uM; assay type: ADME
T3 sequence (P05177 whole entry): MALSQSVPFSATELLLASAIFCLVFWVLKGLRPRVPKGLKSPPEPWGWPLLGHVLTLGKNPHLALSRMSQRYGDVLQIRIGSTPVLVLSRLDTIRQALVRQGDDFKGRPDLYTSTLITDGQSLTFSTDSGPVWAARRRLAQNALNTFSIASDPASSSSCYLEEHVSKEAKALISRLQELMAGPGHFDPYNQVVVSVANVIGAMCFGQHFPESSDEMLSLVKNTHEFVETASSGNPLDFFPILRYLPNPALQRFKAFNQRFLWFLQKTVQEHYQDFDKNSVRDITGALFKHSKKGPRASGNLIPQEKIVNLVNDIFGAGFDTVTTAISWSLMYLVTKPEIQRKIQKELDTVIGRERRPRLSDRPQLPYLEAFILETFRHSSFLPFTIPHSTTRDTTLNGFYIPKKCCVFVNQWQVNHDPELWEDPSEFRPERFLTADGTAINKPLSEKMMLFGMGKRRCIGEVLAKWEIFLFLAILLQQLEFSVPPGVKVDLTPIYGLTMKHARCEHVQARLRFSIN

CYP2B6 = biological target: T4, CYP2B6 (Homo sapiens, UniProt P20813); experiment: Inhibition of CYP2B6 (unknown origin) at 20 uM; assay type: ADME
T4 sequence (P20813 whole entry): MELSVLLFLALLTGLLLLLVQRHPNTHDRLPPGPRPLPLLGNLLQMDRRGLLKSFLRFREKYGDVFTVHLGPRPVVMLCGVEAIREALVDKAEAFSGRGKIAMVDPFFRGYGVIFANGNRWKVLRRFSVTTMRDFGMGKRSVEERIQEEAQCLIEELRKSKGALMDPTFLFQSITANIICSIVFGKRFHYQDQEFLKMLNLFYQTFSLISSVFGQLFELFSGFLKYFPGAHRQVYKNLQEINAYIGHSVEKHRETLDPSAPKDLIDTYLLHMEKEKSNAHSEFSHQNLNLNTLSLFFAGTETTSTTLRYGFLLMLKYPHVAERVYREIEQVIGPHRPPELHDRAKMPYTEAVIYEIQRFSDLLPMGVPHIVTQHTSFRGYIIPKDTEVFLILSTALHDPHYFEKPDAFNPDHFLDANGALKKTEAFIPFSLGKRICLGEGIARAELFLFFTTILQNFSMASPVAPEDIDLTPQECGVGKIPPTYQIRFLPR

CYP2D6 = CYP2D6 (Homo sapiens, UniProt P10635); experiment: Inhibition of CYP2D6 (unknown origin) at 20 uM; assay type: ADME
CYP2D6, sequence (P10635 whole entry): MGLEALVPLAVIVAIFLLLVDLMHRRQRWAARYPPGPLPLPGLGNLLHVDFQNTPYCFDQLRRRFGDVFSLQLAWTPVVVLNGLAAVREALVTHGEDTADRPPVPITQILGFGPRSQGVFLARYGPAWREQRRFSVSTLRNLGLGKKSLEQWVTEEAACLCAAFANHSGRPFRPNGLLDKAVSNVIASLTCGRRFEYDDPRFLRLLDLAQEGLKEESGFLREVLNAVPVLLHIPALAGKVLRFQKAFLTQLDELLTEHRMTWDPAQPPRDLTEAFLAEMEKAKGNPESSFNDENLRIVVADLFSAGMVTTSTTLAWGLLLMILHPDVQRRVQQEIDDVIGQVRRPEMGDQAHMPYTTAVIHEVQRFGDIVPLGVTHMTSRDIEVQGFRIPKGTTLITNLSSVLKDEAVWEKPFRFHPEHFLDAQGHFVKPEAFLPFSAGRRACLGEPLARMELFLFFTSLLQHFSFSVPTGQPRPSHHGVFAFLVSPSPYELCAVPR

CYP2E1 = CYP2E1 (Homo sapiens, UniProt P05181); experiment: Inhibition of CYP2E1 (unknown origin) at 20 uM; assay type: ADME
CYP2E1, sequence (P05181 whole entry): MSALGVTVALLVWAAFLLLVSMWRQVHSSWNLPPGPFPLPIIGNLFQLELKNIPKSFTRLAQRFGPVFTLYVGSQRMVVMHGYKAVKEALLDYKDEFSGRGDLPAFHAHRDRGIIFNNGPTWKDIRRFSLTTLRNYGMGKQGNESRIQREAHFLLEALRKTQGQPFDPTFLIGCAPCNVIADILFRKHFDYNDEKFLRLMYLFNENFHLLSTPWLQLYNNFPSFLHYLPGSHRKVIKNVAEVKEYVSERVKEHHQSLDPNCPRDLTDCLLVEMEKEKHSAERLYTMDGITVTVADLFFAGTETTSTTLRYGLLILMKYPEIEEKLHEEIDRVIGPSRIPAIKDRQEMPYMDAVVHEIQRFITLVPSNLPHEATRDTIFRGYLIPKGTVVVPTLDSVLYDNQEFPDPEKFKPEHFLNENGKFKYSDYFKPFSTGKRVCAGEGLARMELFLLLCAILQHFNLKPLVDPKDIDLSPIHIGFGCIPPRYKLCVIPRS

CT26 = experiment: Cytotoxicity against mouse CT26 cells assessed as reduction in cell viability incubated for 72 hrs by CCK-8 assay; conditions: CT26, 72 h
Panc02 = experiment: Cytotoxicity against mouse Panc02 cells assessed as reduction in cell viability incubated for 72 hrs by CCK-8 assay; conditions: Panc02, 72 h
[12] = Cytotoxicity against HEK293 cells assessed as reduction in cell viability incubated for 72 hrs by CCK-8 assay; assay type: toxicity, cell-based; conditions: human

Prostaglandin E2 receptor EP4 subtype (Homo sapiens, UniProt P35408), sequence (P35408 whole entry): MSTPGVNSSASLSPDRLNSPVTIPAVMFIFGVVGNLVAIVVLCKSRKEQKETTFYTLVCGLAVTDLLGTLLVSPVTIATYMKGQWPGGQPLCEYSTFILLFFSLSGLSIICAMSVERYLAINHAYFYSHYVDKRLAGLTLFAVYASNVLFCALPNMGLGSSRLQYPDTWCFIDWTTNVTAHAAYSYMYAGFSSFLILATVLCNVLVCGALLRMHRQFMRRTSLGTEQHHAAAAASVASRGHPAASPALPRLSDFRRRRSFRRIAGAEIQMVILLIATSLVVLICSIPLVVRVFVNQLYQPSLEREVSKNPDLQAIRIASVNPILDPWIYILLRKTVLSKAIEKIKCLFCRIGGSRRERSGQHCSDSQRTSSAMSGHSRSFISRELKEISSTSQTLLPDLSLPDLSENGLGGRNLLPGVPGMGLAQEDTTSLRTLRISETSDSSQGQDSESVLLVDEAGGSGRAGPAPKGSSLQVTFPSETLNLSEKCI

## CCC1CCc2c(sc(CCc3ccc(F)cc3)c2C(=O)N[C@@H](C)c2ccc(C(=O)O)cc2)C1 (some centres undefined)
[1]
  IC50: 648 nM

## C[C@H](NC(=O)c1c(/N=C/c2cccc(C(F)(F)F)c2)sc2c1CCOC2)c1ccc(C(=O)O)cc1
[1]
  IC50: > 1000 nM

## C[C@H](NC(=O)c1c(CCc2ccc(F)cc2)sc2c1CCCC2)c1ccc(C(=O)O)cc1
[1]
  IC50: 27.8 nM
[2]
  IC50: 29 nM
[3]
  half-life: 14 min
[4]
  microsomal CLint: 97.6 µL/min/mg
[5]
  remaining at 1 h, 10 µM: 5%

## COc1ccc(Cc2sc3c(c2C(=O)N[C@@H](C)c2ccc(C(=O)O)cc2)CCOC3)cc1F
[6]
  IC50: > 10000 nM
[7]
  IC50: > 10000 nM
[8]
  IC50: > 10000 nM

## C[C@H](NC(=O)c1c(Cc2ccc(OC(F)(F)F)c(Cl)c2)sc2c1CCOC2)c1ccc(C(=O)O)cc1
[1]
  IC50: 6.6 nM

## C[C@H](NC(=O)c1c(CCc2ccc(F)cc2)sc2c1CCC2)c1ccc(C(=O)O)cc1
[2]
  IC50: 19.8 nM
[6]
  IC50: > 10000 nM
[7]
  IC50: > 10000 nM
[8]
  IC50: > 10000 nM
[3]
  half-life: 6.3 min
[4]
  microsomal CLint: 221 µL/min/mg
[5]
  remaining at 1 h, 10 µM: 12.2%
[9]
  half-life: 16.1 min
[10]
  microsomal CLint: 86.1 µL/min/mg
[11]
  remaining at 1 h, 10 µM: 6.8%

## O=C(O)c1cccc(CNC(=O)c2c(Cc3cccc(C(F)(F)F)c3)sc3c2CCOC3)c1
[1]
  IC50: > 1000 nM

## C[C@H](NC(=O)c1c(NC(=O)c2ccc(F)cc2)sc2c1CCOC2)c1ccc(C(=O)O)cc1
[1]
  IC50: > 1000 nM

## C[C@H](NC(=O)c1c(NCc2ccc(C(F)(F)F)cc2)sc2c1CCOC2)c1ccc(C(=O)O)cc1
[1]
  IC50: 32.9 nM
[2]
  IC50: 66.7 nM
[6]
  IC50: > 10000 nM
[7]
  IC50: > 10000 nM
[8]
  IC50: > 10000 nM

## C[C@H](NC(=O)c1c(Cc2ccc(F)cc2)sc2c1CCOC2)c1ccc(C(=O)NN)cc1
[1]
  IC50: 74.9 nM

## COc1ccc2cc(C#Cc3sc4c(c3C(=O)N[C@@H](C)c3ccc(C(=O)O)cc3)CCOC4)ccc2c1
[1]
  IC50: 27.2 nM

## COc1cccc(Cc2sc3c(c2C(=O)N[C@@H](C)c2ccc(C(=O)O)cc2)CCOC3)c1
[1]
  IC50: 1.9 nM

## O=C(NCC1CCC(C(=O)O)CC1)c1c(Cc2ccc(F)cc2)sc2c1CCOC2 (centres undefined)
[1]
  IC50: 30.3 nM

## C[C@H](NC(=O)c1c(CCc2ccc(F)cc2)sc2c1CCN(C(=O)OC(C)(C)C)C2)c1ccc(C(=O)O)cc1
[1]
  IC50: 315 nM

## CC(=O)N1CCc2c(sc(CCc3ccc(F)cc3)c2C(=O)N[C@@H](C)c2ccc(C(=O)O)cc2)C1
[1]
  IC50: > 1000 nM

## C[C@H](NC(=O)c1c(CCc2ccc(F)cc2)sc2c1CCOC2)c1ccc(C(=O)O)cc1
EMT6
  IC50: > 100000 nM
3LL cell line
  IC50: > 100000 nM
CYP2C9
  inhibition at 20 µM: 58%
[1]
  IC50: 19.1 nM
[2]
  IC50: 50.1 nM
[6]
  IC50: > 10000 nM
[7]
  IC50: > 10000 nM
[8]
  IC50: > 10000 nM
[3]
  half-life: 48.6 min
[4]
  microsomal CLint: 28.5 µL/min/mg
[5]
  remaining at 1 h, 10 µM: 40.7%
[9]
  half-life: > 145 min
[10]
  microsomal CLint: < 9.6 µL/min/mg
[11]
  remaining at 1 h, 10 µM: 75.7%
CYP1A2
  inhibition at 20 µM: 88%
CYP2B6
  inhibition at 20 µM: 76%
CYP2D6
  inhibition at 20 µM: 76%
CYP2E1
  inhibition at 20 µM: 39%
CT26
  IC50: > 100000 nM
Panc02
  IC50: > 100000 nM
[12]
  IC50 at 72 h: > 100000 nM

## C[C@H](NC(=O)c1c(Cc2cccc(Cl)c2)sc2c1CCOC2)c1ccc(C(=O)O)cc1
[1]
  IC50: 3.2 nM

## C[C@H](NC(=O)c1c(C#Cc2ccc(=O)[nH]c2)sc2c1CCOC2)c1ccc(C(=O)O)cc1
[1]
  IC50: 642 nM

## COc1cccc(C#Cc2sc3c(c2C(=O)N[C@@H](C)c2ccc(C(=O)O)cc2)CCOC3)c1
[1]
  IC50: 12.4 nM

## C[C@H](NC(=O)c1c(Cc2cccc(F)c2)sc2c1CCOC2)c1ccc(C(=O)O)cc1
[1]
  IC50: 5.1 nM

## C[C@H](NC(=O)c1c(Cc2ccc(C(C)(C)C)cc2)sc2c1CCOC2)c1ccc(C(=O)O)cc1
[1]
  IC50: 9.5 nM

## C[C@H](NC(=O)c1c(CCc2ccc(F)cc2)sc2c1CC(C)(C)OC2)c1ccc(C(=O)O)cc1
[1]
  IC50: 36.2 nM

## O=C(O)c1ccc(C2(NC(=O)c3c(Cc4cccc(C(F)(F)F)c4)sc4c3CCOC4)CC2)cc1
[1]
  IC50: 1 nM

## CC(C)c1ccc(Cc2sc3c(c2C(=O)N[C@@H](C)c2ccc(C(=O)O)cc2)CCOC3)cc1
[1]
  IC50: 2.7 nM

## COC(=O)c1ccc([C@H](C)NC(=O)c2c(Cc3ccc(F)cc3)sc3c2CCOC3)cc1
[1]
  IC50: > 1000 nM

## CON(C)C(=O)c1ccc([C@H](C)NC(=O)c2c(Cc3ccc(F)cc3)sc3c2CCOC3)cc1
[1]
  IC50: 187 nM

## COc1ccc(Cc2sc3c(c2C(=O)N[C@@H](C)c2ccc(C(=O)O)cc2)CCOC3)cc1
[1]
  IC50: 2.1 nM
[6]
  IC50: > 10000 nM
[7]
  IC50: > 10000 nM
[8]
  IC50: > 10000 nM
